Laboratory results published in ChEMBL document CHEMBL1139228, “Saliniketals A and B, bicyclic polyketides from the marine actinomycete Salinispora arenicola” (J Nat Prod, 2007).
The source made the active and inactive calls. The rule behind the calls is not given here.

Tests used:
[1] = target: T1, Ornithine decarboxylase (Homo sapiens) (UniProt P11926); experiment: Inhibition of ornithine decarboxylase upto 1 mM
T1 sequence (whole entry): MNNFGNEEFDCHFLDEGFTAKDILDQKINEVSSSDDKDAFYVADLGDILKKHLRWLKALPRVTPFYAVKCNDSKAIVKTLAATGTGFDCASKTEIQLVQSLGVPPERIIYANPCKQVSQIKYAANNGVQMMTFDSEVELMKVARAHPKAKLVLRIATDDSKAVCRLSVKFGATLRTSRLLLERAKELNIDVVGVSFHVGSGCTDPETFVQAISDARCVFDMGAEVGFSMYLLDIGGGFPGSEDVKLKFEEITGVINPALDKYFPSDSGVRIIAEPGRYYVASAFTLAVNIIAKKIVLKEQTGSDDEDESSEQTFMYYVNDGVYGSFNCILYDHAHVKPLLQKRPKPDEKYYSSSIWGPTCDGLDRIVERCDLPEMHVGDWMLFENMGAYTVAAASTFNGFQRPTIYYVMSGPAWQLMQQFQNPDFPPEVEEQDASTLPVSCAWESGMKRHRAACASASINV

[2] = target: T1, Ornithine decarboxylase (Homo sapiens); experiment: Inhibition of ornithine decarboxylase induction expressed in T24 cells; type: cell-based; conditions: T-24
[3] = Inhibition of DNA dependent RNA polymerase in prokaryotes

| Activity [1] | Activity [2] | Activity [3] | Compound |
| --- | --- | --- | --- |
| inactive | inactive | – | C/C(=C/C=C/[C@H](C)[C@H](O)[C@@H](C)[C@@H](O)[C@@H](C)[C@@H]1O[C@@]2(C)CC[C@@H](O2)[C@H]1C)C(N)=O |
| – | – | Active | CO[C@H]1/C=C/O[C@@]2(C)Oc3c(C)c(O)c4c(O)c(cc(O)c4c3C2=O)NC(=O)/C(C)=C\C=C\[C@H](C)[C@H](O)[C@@H](C)[C@@H](O)[C@@H](C)[C@H](OC(C)=O)[C@@H]1C |
| inactive | inactive | – | C[C@H]([C@H](O)[C@H](C)[C@@H](O)[C@@H](C)/C=C/C=C(/CO)C(N)=O)[C@@H]1O[C@@]2(C)CC[C@@H](O2)[C@H]1C |
